PMC5243976 (Iranian Journal of Basic Medical Sciences, 2017)

biological target: acetylcholinesterase from electric eel source (AChE, E.C. 3.1.1.7, Type V-S) (Electrophorus electricus, UniProt O42275); test: Ellman test, anti-acetylcholinesterase activity; type: biochemical
Sequence (O42275 24-633): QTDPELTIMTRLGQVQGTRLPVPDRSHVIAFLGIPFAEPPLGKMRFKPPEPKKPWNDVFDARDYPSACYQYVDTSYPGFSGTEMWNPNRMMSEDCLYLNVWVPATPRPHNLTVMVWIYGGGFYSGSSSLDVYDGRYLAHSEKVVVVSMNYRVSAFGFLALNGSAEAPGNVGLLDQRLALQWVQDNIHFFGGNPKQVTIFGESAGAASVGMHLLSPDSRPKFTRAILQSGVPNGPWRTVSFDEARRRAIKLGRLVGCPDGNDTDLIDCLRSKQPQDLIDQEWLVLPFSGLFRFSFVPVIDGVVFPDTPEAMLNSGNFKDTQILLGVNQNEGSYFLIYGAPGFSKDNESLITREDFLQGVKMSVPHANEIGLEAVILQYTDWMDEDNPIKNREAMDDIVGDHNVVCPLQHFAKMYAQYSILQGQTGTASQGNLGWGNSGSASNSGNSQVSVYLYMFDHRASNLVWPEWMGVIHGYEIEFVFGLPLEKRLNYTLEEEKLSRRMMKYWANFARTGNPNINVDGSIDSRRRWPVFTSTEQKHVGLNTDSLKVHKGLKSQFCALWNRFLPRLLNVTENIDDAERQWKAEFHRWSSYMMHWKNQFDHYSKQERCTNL

SMILES | IC50 [µM]
O=C(c1ccccc1Cl)N1CCN(CCN2C(=O)c3ccccc3C2=O)CC1 [Compound 4a, 2-(2-(4-(2-Chlorobenzoyl)piperazin-1-yl)ethyl) isoindoline-1,3-dione] | 333
O=C(c1cccc(Cl)c1)N1CCN(CCN2C(=O)c3ccccc3C2=O)CC1 [Compound 4b, 2-(2-(4-(3-Chlorobenzoyl)piperazin-1-yl)ethyl) isoindoline-1,3-dione] | 70.2
O=C(c1ccc(Cl)cc1)N1CCN(CCN2C(=O)c3ccccc3C2=O)CC1 [Compound 4c, 2-(2-(4-(4-Chlorobenzoyl)piperazin-1-yl)ethyl) isoindoline-1,3-dione] | > 1000
O=C(c1ccccc1F)N1CCN(CCN2C(=O)c3ccccc3C2=O)CC1 [Compound 4d, 2-(2-(4-(2-Fluorobenzoyl)piperazin-1-yl)ethyl) isoindoline-1,3-dione] | 3.6
O=C(c1cccc(F)c1)N1CCN(CCN2C(=O)c3ccccc3C2=O)CC1 [Compound 4e, 2-(2-(4-(3-Fluorobenzoyl)piperazin-1-yl)ethyl) isoindoline-1,3-dione] | 0.0071
O=C(c1ccc(F)cc1)N1CCN(CCN2C(=O)c3ccccc3C2=O)CC1 [Compound 4f, 2-(2-(4-(4-Fluorobenzoyl)piperazin-1-yl)ethyl) isoindoline-1,3-dione] | 50.6
COc1ccccc1C(=O)N1CCN(CCN2C(=O)c3ccccc3C2=O)CC1 [Compound 4g, 2-(2-(4-(2-Methoxybenzoyl)piperazin-1-yl)ethyl) isoindoline-1,3-dione] | 100
COc1cccc(C(=O)N2CCN(CCN3C(=O)c4ccccc4C3=O)CC2)c1 [Compound 4h, 2-(2-(4-(3-Methoxybenzoyl)piperazin-1-yl)ethyl) isoindoline-1,3-dione] | 1.3
COc1ccc(C(=O)N2CCN(CCN3C(=O)c4ccccc4C3=O)CC2)cc1 [Compound 4i, 2-(2-(4-(4-Methoxybenzoyl)piperazin-1-yl)ethyl) isoindoline-1,3-dione] | 0.0203
O=C(c1ccccc1[N+](=O)[O-])N1CCN(CCN2C(=O)c3ccccc3C2=O)CC1 [Compound 4j, 2-(2-(4-(2-Nitrobenzoyl)piperazin-1-yl)ethyl) isoindoline-1,3-dione] | 141
